From US20230141988A1, “PHARMACEUTICAL COMPOSITION FOR USE IN THE TREATMENT OF NEUROLOGICAL DISEASES” (Aclipse One Inc., priority 2020, published 2023)
Where two headings read alike, the source gives them in different places.

Tests used:
in vivo [1] = experiment: in vivo
Description: Three non-naïve male beagle dogs supplied by Marshall Bioresources (Beijing, China) were used in this study. The animals were confirmed healthy before being assigned to the study. Each animal was given a unique identification number which was marked on ear and written on the cage card. The room(s) were controlled and monitored for relative humidity (targeted mean range 40% to 70%, and any excursion from this range for more than 3 hours will be documented as a deviation) and temperature (targeted mean range 18° C. to 26° C., and any excursion from this range will be documented as a deviation) with 10 to 20 air changes/hour. The rooms were on a 12-hour light/dark cycle except when interruptions are necessitated by study activities.
Animals were fed twice daily. Stock Dogs were fed approximately 220 grams of Certified Dog Diet daily (Beijing Keao Xieli Feed Co., Ltd. Beijing, P. R. China). These amounts could be adjusted as necessary based on food consumption of the group or an individual body weight change. For PO groups, animals were fed at 3:30 to 4:00 pm on the day prior to oral dosing and any remaining food was removed at 7:00 pm. Food was withheld until 4-hour post-dose. Animals were fed once on the day of dosing, with the amount of approximately 220 grams.
Three male non-naïve beagle dogs were assigned to this study. […] The detailed dosing and sampling regimens are described in the following two tables:
PO formulation preparations were processed in study facility on the day of dosing according to instructions provided by the sponsor. The concentrations of compounds in all dosing solutions were determined by HPLC/UV. Two aliquots were taken from each clear and three aliquots were taken from suspension formulations. All formulation samples were stored at 2-8° C. until analyzed by HPLC/UV. All dose formulation samples were analyzed in duplicate using HPLC/UV.
In plasma, approximately 0.5 mL blood was collected at each time point. All blood samples were collected from a peripheral vessel. All blood samples were transferred into commercially available tubes containing Potassium (K2) EDTA on wet ice and processed for plasma. Samples were centrifuged (3,000×g for 10 minutes at 2 to 8° C.) within 30 minutes of collection. After centrifugation, the stabilizing agent was added to the harvested plasma within 60 minutes. The samples were kept on ice and protected from sunlight (under yellow light). The stabilizing agent was ascorbic acid 200 mg/mL added in a proportion of 10% in plasma. The plasma samples were divided into two equal samples with each at least 0.2 ml (0.2*2 mL/sample) and transferred into labeled polypropylene micro-centrifuge tubes and stored frozen in a freezer set to maintain […] or lower until analyzed.
In CSF, about 0.1 mL/time point (50 μL*2 aliquots) of CSF were collected via the catheter implanted in the Cisterna Magna of conscious beagle dogs without any sedation. The procedures for CSF collection and handling were as follows: a polypropylene tube was weighed to accuracy of 0.1 mg (weight #1). CSF was collected and weighed the sample tube again (weight #2). Total CSF weight=weight #2−weight #1. The samples were kept on ice and protected from sunlight (under yellow light). Stabilizing agent was added within 60 minutes. The stabilizing agent was ascorbic acid 200 mg/mL added in a proportion of 10% in CSF. CSF samples were frozen on dry ice and stored at −60° C. or lower until bio-analysis.
For brain samples, different regions of brain were collected. Dogs were anesthetized and euthanasia according to SOP and collected the brain. The striatum, cortex and cerebellum were token rapidly and homogenized immediately (within 30 min) after being harvested. All the samples were stored at −60° C. or lower freezer finally.
For tissue homogenization, the homogenization solution was methanol:10 mM PBS=1:2 and set on dry ice. An empty conical tube was weighed, recorded, and set on dry ice.

in vivo [2] = details: male, C57BL/6J, mouse, po, 25 mg/kg; for concentration at […]: […] post last day (Day 4) dose
Description: (§1) Male C57BL/6J mice were purchased from Si Bei Fu Laboratory Animal Technology Co. Ltd (Beijing, China). The animals were about 8 weeks old with body weights of 20-30 g on the dosing date. The animals were housed in a 12-hour light/12-hour dark cycle environment and had free access to food and water. All animals were fasted overnight and fed after 4 hours collection.
(§2) The formulation was freshly made prior to use. Preparation of formulation for oral dosing are as follows:
(§3) For Group 1 and 2, blood, CSF and brain samples were collected from 3 mice at the following time points.
(§4) Plasma samples: About 30 μL or 300 μL of blood samples were collected from each animal via dorsal metatarsal vein or heart. These blood samples were placed into the tubes containing K2EDTA. And centrifugation at 3000 g for 10 minutes in a 4° C. centrifuge. The completion time from collection was less than 30 min. The stabilizing agent of ascorbic acid at 200 mg/mL was added in a proportion of 10% in plasma. The plasma samples were stored in a freezer at −75±15° C. prior to analysis. The completion time from collection was less than 60 min.
(§5) Brain and CSF Samples: The animals were fully exsanguinated with a rising concentration of CO2 gas prior to CSF and brain collection.
(§6) For CSF collection, make an incision by scissors on the neck of the rats, and the foramen magnum is exposed to the sight of scientist. Use a syringe with a venoclysis needle to sample the CSF, the tip of the needle is insert into the membrane of foramen magnum about 1-2 mm, and then pull the stopcock a small length of the syringe to make a negative pressure, then the CSF fluids to the tube. Watch the fluid in the tube and pull the stopcock slowly, when the amount of the CSF is enough, stop and split the needle and the syringe to ensure there is no negative pressure in the tube. Then cut off the needle and collect the CSF fluid. If we could see the blood in the tube, stop immediately, split the needle and the syringe, and then cut off between the blood and CSF to ensure there is no blood in the CSF fluid. Then collect the CSF fluid. The stabilizing agent of ascorbic acid at 200 mg/mL was added in a proportion of 10% in CSF. The completion time from collection was less than 60 min.
(§7) For brain collection. Brain samples were collected at adopted time point, and washed 3 times with cold saline, then dried with clean gauze and put into the weighed tube, quick frozen in ice box and kept at −75±15° C. All brain samples were weighted and homogenized with phosphate buffered saline (PBS) by brain weight (g) to PBS volume (mL) ratio 1:3 before analysis. The stabilizing agent of ascorbic acid at 200 mg/mL was added in a proportion of 10% in Brain homogenate. The actual concentration was the detected value multiplied by the dilution factor. Brain samples were collected at designed time point, quickly homogenized and kept at −75±15° C. The completion time from collection was less than 60 min.
(§8) Calibration standard working solutions were prepared at concentrations of 0.2, 0.5, 1, 2, 5, 10, 50, 100, 500, 1000 ng/mL by serial dilution of the standard stock solution. These QC samples were prepared on the day of analysis in the same way as calibration standards.
(§9) Plasma: The desired serial concentrations of working solutions were achieved by diluting stock solution of analyte with 50% acetonitrile in water solution. 10 μL of working solutions (0.1, 0.2, 0.5, 1, 2, 5, 10, 50, 100, 500, 1000 ng/mL) were added to 10 μL of the blank C57BL/6J Mice plasma to achieve calibration standards of 0.1˜1000 ng/mL (0.1, 0.2, 0.5, 1, 2, 5, 10, 50, 100, 500, 1000 ng/mL) in a total volume of 20 μL.

[3] = for AUC_%Extrap_obs: Mean, male C57BL/6J mice; for Brain concentration, Mean / Plasma concentration, Mean / CSF concentration / plasma concentration: male, C57BL/6J, mouse, in vivo, po, 25 mg/kg
Description: as §1, §2, §3, §4, §5, §6, §7, §8, §9

in vivo [4] = details: male, cynomolgus monkey, po, 10 mg/kg, Plasma concentration, fed male Cynomolgus Monkeys
Description: Three male Cynomolgus Monkeys were administrated a single oral dose at 10 mg/kg. The oral vehicle was 10% (w/v) HP-β-CD in water.
Male Cynomolgus Monkeys were purchased from Topgene Biotechnology. The animals were 2-5 years old with body weights of 2.0-5.0 kg on the dosing date. The animals were housed in a 12-hour light/12-hour dark cycle environment and had free access to food and water.
All animals for PO administration were fasted overnight prior to dosing and will be fed approximately 2 hours after dosing.
Three male Cynomolgus Monkeys were assigned to this study. […] The dosing regimens and formulation (vehicle) compositions are described in the following table below:
Animals were weighed prior to dose administration on the day of dosing for calculating the actual dose volume. The dosages were prepared as illustrated in the table below:
Blood samples were taken at the following times:
Whole blood samples were gently inverted several times to ensure anticoagulation then placed on wet ice prior to centrifugation. Within 30 minutes of collection, the samples were centrifuged at approximately 4,000×g (force) for 5 minutes at 2 to 8° C. to obtain plasma. The stabilizing agent, ascorbic acid at 200 mg/mL, was added in a proportion of 10% in plasma. The plasma samples were stored in a freezer at −75±15° C. prior to analysis. The completion time from collection was less than 60 min. The resultant plasma samples will be immediately separated divided into 2 aliquots (˜75 μL each) and transferred to cryogenic vial. Samples will be maintained on wet ice throughout processing, and stored in a freezer at −75±15° C. prior to analysis. Samples should be protected from ambient light (under sodium lamp).
Calibration standard working solutions were prepared at concentrations of 2, 5, 10, 20, 100, 500, 1000, 5000, 10000 ng/mL by serial dilution of the standard stock solution in 1:1 acetonitrile:water. Quality control working solutions at concentrations of 5, 10, 20, 500 and 8000 ng/mL were prepared by serial dilution of the standard stock solution in 1:1 acetonitrile:water. The QC samples were prepared on the day of analysis in the same way as calibration standards.
Samples were prepared with 5 μL of each calibration standard working solution (2, 5, 10, 20, 100, 500, 1000, 5000, 10000 ng/mL) added to 50 μL of the blank Cynomolgus Monkeys plasma to achieve calibration standards concentrations of 0.2, 0.5, 1, 2, 10, 50, 100, 500, 1000 ng/mL (relative to a 50-4, plasma aliquot). Quality Control (QC) samples at 0.5 ng/mL (low-1), 1 ng/mL (low-2), 2 ng/mL (low-3), 50 ng/mL (mid) and 800 ng/mL (high) for plasma were prepared independently for those used for the calibration curves.
Total volumes of 55 μL of standards, 55 μL of QC samples and 55 μL of unknown samples (50 μL of plasma with 5 μL of 1:1 acetonitrile:water) were added to 200 μL of acetonitrile containing IS to precipitate proteins. Then the samples were vortexed for 30 sec. […] All of the samples were processed on ice.
The LC-MS/MS system consisted of two Shimadzu LC-30AD pumps, a DGU-20A5R degasser, a Rack changer II and an AB Sciex Triple Quad 5500 LC/MS/MS mass spectrometer. Chromatographic separation was performed on Agilent ZORBAX XDB-Phenyl 5 μm (50×2.1 mm) at room temperature. The mobile phase was composed of A: 5% Acetonitrile/95% water (0.1% Formic acid); B: 95% Acetonitrile/5% water (0.1% Formic acid). The flow rate was 0.6 mL/min. The injection volume was 2 μL.
A multiple reaction monitoring (MRM) method was selected for quantitative analysis. […] The instrument parameters were set as follows: ion spray voltage: 5500 V; curtain gas: 40 psi; ion source gas 1: 50 psi; ion source gas 2: 50 psi; temperature: 450° C. The compound dependent parameters are listed as follows:
HPLC flow rate was set at 0.6 mL/min with the following conditions:

[5] = male, beagle, dog, in vivo, po, 10 mg/kg
[6] = male, beagle, dog, in vivo, po, 10 mg/kg, 0.5 h
[7] = single PO 10 mg/kg, 0.500 h, individual animal

CN1CCc2cccc3c2[C@@H]1Cc1ccc(O)c(O)c1-3
AUC(0-t) (in vivo [1]; [5]): 86.4 ng·h/mL | Tlast (in vivo [1]; [5]): 0.500 h | CSF concentration (in vivo [1]; [6]): 2.71 ng/mL | Striatum concentration (in vivo [1]; [6]): 145 ng/g | Kp (in vivo [1]; male, beagle, dog, in vivo, po, 10 mg/kg, AUClast ratio of CSF to plasma): 0.00888 ± 0.0031 | Cmax (in vivo [1]; male, beagle, dog, in vivo, po, 10 mg/kg, Cmax, plasma, single PO 10 mg/kg, individual animal): 265 ng/mL | MRT last (in vivo [1]; male, beagle, dog, in vivo, po, 10 mg/kg, MRTlast): 19.7 min | concentration at […] (in vivo [1]; male, beagle, dog, in vivo, po, 10 mg/kg, plasma concentration): 255 ng/mL | concentration at 0.033 h (in vivo [1]; male, beagle, dog, in vivo, po, 10 mg/kg, plasma concentration, single PO 10 mg/kg, 119 s, individual animal): 2.92 ng/mL | Kp at 0.5 h (in vivo [1]; male, beagle, dog, in vivo, po, 10 mg/kg, ratio of cerebellum/plasma): 0.505 ± 0.117 | Kp at 0.5 h (in vivo [1]; male, beagle, dog, in vivo, po, 10 mg/kg, ratio of cortex/plasma): 0.704 ± 0.184 | Kp at 0.5 h (in vivo [1]; male, beagle, dog, in vivo, po, 10 mg/kg, ratio of striatum/plasma): 0.666 ± 0.0544 | Cerebellum concentration (in vivo [1]; [7]): 129 ng/g | Cortex concentration (in vivo [1]; [7]): 124 ng/g | Striatum concentration (in vivo [1]; [7]): 137 ng/g | Tmax (in vivo [2]): 6 min | AUC(0-t) (in vivo [2]; AUClast, plasma, Mean, male C57BL/6J mice, single oral dose 25 mg/kg): 857 ng·h/mL | concentration at 0.5 h (in vivo [2]; Brain concentration, Mean): 65.7 ng/g | concentration at 1 h (in vivo [2]; Brain concentration, Mean): 22.6 ng/g | concentration at 2 h (in vivo [2]; Brain concentration, Mean): 16.8 ng/g | concentration at 3 h (in vivo [2]; Brain concentration, Mean): 11.5 ng/g | concentration at […] (in vivo [2]; Brain concentration, Mean, male C57BL/6J mice, repeated oral dose 25 mg/kg): 2330 ng/g | concentration at 2 h (in vivo [2]; Brain concentration, male C57BL/6J mice, repeated oral dose 25 mg/kg, 2 h post last day (Day 4) dose, G3): 10.9 ng/g | concentration at […] (in vivo [2]; Brain concentration, male C57BL/6J mice, repeated oral dose 25 mg/kg, G3): 1080 ng/g | concentration at 1 h (in vivo [2]; CSF concentration): 3.71 ng/mL | concentration at 2 h (in vivo [2]; CSF concentration): 3.08 ng/mL | concentration at 4 h (in vivo [2]; CSF concentration): 4.08 ng/mL | concentration at 0.5 h (in vivo [2]; CSF concentration, Mean): 7.7 ng/mL | concentration at 1 h (in vivo [2]; CSF concentration, Mean): 3.32 ng/mL | concentration at 2 h (in vivo [2]; CSF concentration, Mean): 3.56 ng/mL | concentration at 4 h (in vivo [2]; CSF concentration, Mean): 3.42 ng/mL | concentration at […] (in vivo [2]; CSF concentration, Mean, male C57BL/6J mice, repeated oral dose 25 mg/kg): 50.2 ng/mL | concentration at […] (in vivo [2]; CSF concentration, male C57BL/6J mice, repeated oral dose 25 mg/kg, G2): 178 ng/mL | concentration at 1 h (in vivo [2]; CSF concentration, male C57BL/6J mice, single oral dose 25 mg/kg, 1 h, G3): 3.18 ng/mL | Cmax (in vivo [2]): 200 ng/mL | Cmax (in vivo [2]; CSF, Mean, male C57BL/6J mice, single oral dose 25 mg/kg): 56.4 ng/mL | Cmax (in vivo [2]; brain, Mean, male C57BL/6J mice, last day (Day 4) of repeated oral dose 25 mg/kg): 2330 ng/mL | Cmax (in vivo [2]; brain, Mean, male C57BL/6J mice, single oral dose 25 mg/kg): 729 ng/mL | Cmax (in vivo [2]; plasma, Mean, male C57BL/6J mice, last day (Day 4) of repeated oral dose 25 mg/kg): 1360 ng/mL | Cmax (in vivo [2]; plasma, Mean, male C57BL/6J mice, single oral dose 25 mg/kg): 1150 ng/mL | concentration at 2 h (in vivo [2]; Plasma concentration): 100 ng/mL | concentration at 8 h (in vivo [2]; Plasma concentration): 0.765 ng/mL | concentration at 12 h (in vivo [2]; Plasma concentration): 0.198 ng/mL | concentration at 0.5 h (in vivo [2]; Plasma concentration, Mean): 528 ng/mL | concentration at 1 h (in vivo [2]; Plasma concentration, Mean): 235 ng/mL | concentration at 2 h (in vivo [2]; Plasma concentration, Mean): 74.4 ng/mL | concentration at 3 h (in vivo [2]; Plasma concentration, Mean): 72.4 ng/mL | concentration at 8 h (in vivo [2]; Plasma concentration, Mean): 0.87 ng/mL | concentration at 12 h (in vivo [2]; Plasma concentration, Mean): 0.174 ng/mL | concentration at […] (in vivo [2]; Plasma concentration, Mean, male C57BL/6J mice, repeated oral dose 25 mg/kg): 1360 ng/mL | concentration at 2 h (in vivo [2]; Plasma concentration, Mean, male C57BL/6J mice, single oral dose 25 mg/kg, 2 h): 122 ng/mL | concentration at 1 h (in vivo [2]; Plasma concentration, male C57BL/6J mice, repeated oral dose 25 mg/kg, 1 h post last day (Day 4) dose, G1): 112 ng/mL | concentration at 3 h (in vivo [2]; Plasma concentration, male C57BL/6J mice, repeated oral dose 25 mg/kg, 3 h post last day (Day 4) dose, G3): 73.1 ng/mL | concentration at 8 h (in vivo [2]; Plasma concentration, male C57BL/6J mice, repeated oral dose 25 mg/kg, 8 h post last day (Day 4) dose, G3): 1.24 ng/mL | concentration at […] (in vivo [2]; Plasma concentration, male C57BL/6J mice, repeated oral dose 25 mg/kg, G1): 1460 ng/mL | concentration at […] (in vivo [2]; Plasma concentration, male C57BL/6J mice, repeated oral dose 25 mg/kg, G2): 1520 ng/mL | concentration at […] (in vivo [2]; Plasma concentration, male C57BL/6J mice, repeated oral dose 25 mg/kg, G3): 1110 ng/mL | concentration at 1 h (in vivo [2]; Plasma concentration, male C57BL/6J mice, single oral dose 25 mg/kg, 1 h, G2): 162 ng/mL | concentration at 2 h (in vivo [2]; Plasma concentration, male C57BL/6J mice, single oral dose 25 mg/kg, 2 h, G2): 138 ng/mL | AUC_%Extrap_obs ([3]; CSF, last day (Day 4) of repeated oral dose 25 mg/kg): 3.18% | AUC_%Extrap_obs ([3]; brain, single oral dose 25 mg/kg): 18.5% | Brain concentration, Mean ([3]; 0.5 h): 90 ng/g | Plasma concentration, Mean ([3]; 0.5 h): 453 ng/mL | Brain concentration, Mean ([3]; 1 h): 36.3 ng/g | CSF concentration ([3]; 1 h): 3.06 ng/mL | Plasma concentration, Mean ([3]; 1 h): 153 ng/mL | Brain concentration, Mean ([3]; 2 h): 21.9 ng/g | Brain concentration, Mean ([3]; 3 h): 6.80 ng/g | Plasma concentration, Mean ([3]; 3 h): 48.2 ng/mL | CSF concentration ([3]; 4 h): 3.42 ng/mL | plasma concentration ([3]; 8 h): 0.599 ng/mL | plasma concentration ([3]; 12 h): 0.150 ng/mL | concentration at 0.5 h (in vivo [4]; animal 168777C): 4.15 ng/mL | concentration at 0.5 h (in vivo [4]; animal 168779C): 1.26 ng/mL | concentration at 0.5 h (in vivo [4]; animal 169939C): 0.975 ng/mL | concentration at 1 h (in vivo [4]; 1 h, animal 169939C): 2.81 ng/mL | concentration at 2 h (in vivo [4]; animal 168777C): 6.27 ng/mL | concentration at 2 h (in vivo [4]; animal 168779C): 6.27 ng/mL | concentration at 4 h (in vivo [4]; animal 168779C): 8.04 ng/mL | concentration at 4 h (in vivo [4]; animal 169939C): 5.91 ng/mL | concentration at 8 h (in vivo [4]; 8 h, animal 168777C): 1.13 ng/mL
